Test results as given in ChEMBL document CHEMBL5727723, “(S)-5-ethynyl-anabasine, derivatives thereof, and related compositions and methods of making and using” (2020).

Experiment: functional assay: Nematode eggs are isolated from fresh feces by centrifugation and flotation. The eggs are washed and inspected to confirm embryonation has not started. Each sample is tested at six concentrations of a test compound (e.g., 0.02, 0.05, 0.1, 0.25, 0.5 and 1.0 μg/ml) and a negative control (no compound). After incubation for 48 h, the assay is ended, and all eggs and larvae present in each well are counted. The Hill equation with a variable slope is used to fit the dose-response relations using GraphPad Prism. The EC50-values and 95% confidence intervals are calculated.

Structure (SMILES) | EC50
CN1CCCCC1c1cccnc1 (centres undefined) | < 100 µM
CN1CCC[C@H]1c1ccc[n+](C)c1 | < 100 µM
CN1CCCC1c1ccc(N)nc1 (centres undefined) | 12.2 µM
CN1C(=O)CC[C@H]1c1cccnc1 [COTININE] | < 100 µM
